Measurements taken from patent US20240391931A1 (Bristol-Myers Squibb Company, priority 2021, published 2024).

Experiments:
EGFR = EGFR (Homo sapiens, UniProt P00533); assay: EGFR signaling (pEGFR Tyr1068/total EGFR MSD) in A431 cells; type: cell-based; design: endogenous in cells; host or cells: A431, N87; details: for EC50: A431 cells, read-out: A431 pEGFR EC50; for Selectivity A431 EC50/BT474 EC50: ratio A431 pEGFR EC50 to BT474 pHER2 EC50; for Selectivity A431 EC50/HEKYVMA EC50: ratio A431 pEGFR EC50 to HEK YVMA pHER2 EC50
EGFR, sequence (P00533 25-1210): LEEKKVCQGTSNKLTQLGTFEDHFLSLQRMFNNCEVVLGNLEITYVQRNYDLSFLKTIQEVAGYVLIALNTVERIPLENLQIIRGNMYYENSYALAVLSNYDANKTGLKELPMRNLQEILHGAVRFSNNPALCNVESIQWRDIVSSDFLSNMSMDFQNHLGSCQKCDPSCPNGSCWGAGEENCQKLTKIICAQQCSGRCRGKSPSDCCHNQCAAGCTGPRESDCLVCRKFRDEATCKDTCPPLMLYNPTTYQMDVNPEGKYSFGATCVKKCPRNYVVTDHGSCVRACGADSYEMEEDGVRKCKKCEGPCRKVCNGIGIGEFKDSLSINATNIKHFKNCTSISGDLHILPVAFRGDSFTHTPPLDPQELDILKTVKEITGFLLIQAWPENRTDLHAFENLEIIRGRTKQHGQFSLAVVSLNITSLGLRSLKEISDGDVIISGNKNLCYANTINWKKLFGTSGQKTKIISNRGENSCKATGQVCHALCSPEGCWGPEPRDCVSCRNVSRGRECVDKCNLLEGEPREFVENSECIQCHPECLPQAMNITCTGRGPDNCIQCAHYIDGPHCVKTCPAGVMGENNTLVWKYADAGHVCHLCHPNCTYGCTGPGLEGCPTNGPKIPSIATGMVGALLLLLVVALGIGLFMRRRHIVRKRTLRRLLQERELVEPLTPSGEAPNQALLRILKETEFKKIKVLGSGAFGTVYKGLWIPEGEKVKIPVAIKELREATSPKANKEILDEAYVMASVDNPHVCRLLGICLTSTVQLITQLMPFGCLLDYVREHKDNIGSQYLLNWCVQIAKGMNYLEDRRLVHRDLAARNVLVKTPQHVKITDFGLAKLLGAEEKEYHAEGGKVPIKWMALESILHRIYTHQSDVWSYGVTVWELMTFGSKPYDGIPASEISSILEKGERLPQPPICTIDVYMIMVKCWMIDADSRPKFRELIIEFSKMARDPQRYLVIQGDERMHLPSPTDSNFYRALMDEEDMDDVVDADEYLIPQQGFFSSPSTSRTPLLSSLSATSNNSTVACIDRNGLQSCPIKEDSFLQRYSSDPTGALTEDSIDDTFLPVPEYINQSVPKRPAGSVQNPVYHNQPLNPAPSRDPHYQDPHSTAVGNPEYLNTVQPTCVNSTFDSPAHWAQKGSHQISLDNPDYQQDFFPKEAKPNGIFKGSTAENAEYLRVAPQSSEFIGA
Outline: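 EC50 was fitted with variable Hill slope from MSD pTyr1068/total EGFR ratios, expressed as % DMSO control. A431 cells were starved overnight, then exposed 1.5 h to eight concentrations from 10 to 0.005 μM in 1% FBS before a 10-min 100 ng/mL EGF pulse.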

HER2 WT = biological target: T1, HER2 WT (Homo sapiens, UniProt P04626); assay: Enzymatic assay HER2 WT (method a); type: biochemical; details: [HER2 WT]=12.5 nM, [ATP]=25 μM, [Peptide 22]=1 μM
T1 construct: purchased ProQinase, Freiburg, Germany ERBB2 0108-0000-1
T1 sequence (P04626 23-1255): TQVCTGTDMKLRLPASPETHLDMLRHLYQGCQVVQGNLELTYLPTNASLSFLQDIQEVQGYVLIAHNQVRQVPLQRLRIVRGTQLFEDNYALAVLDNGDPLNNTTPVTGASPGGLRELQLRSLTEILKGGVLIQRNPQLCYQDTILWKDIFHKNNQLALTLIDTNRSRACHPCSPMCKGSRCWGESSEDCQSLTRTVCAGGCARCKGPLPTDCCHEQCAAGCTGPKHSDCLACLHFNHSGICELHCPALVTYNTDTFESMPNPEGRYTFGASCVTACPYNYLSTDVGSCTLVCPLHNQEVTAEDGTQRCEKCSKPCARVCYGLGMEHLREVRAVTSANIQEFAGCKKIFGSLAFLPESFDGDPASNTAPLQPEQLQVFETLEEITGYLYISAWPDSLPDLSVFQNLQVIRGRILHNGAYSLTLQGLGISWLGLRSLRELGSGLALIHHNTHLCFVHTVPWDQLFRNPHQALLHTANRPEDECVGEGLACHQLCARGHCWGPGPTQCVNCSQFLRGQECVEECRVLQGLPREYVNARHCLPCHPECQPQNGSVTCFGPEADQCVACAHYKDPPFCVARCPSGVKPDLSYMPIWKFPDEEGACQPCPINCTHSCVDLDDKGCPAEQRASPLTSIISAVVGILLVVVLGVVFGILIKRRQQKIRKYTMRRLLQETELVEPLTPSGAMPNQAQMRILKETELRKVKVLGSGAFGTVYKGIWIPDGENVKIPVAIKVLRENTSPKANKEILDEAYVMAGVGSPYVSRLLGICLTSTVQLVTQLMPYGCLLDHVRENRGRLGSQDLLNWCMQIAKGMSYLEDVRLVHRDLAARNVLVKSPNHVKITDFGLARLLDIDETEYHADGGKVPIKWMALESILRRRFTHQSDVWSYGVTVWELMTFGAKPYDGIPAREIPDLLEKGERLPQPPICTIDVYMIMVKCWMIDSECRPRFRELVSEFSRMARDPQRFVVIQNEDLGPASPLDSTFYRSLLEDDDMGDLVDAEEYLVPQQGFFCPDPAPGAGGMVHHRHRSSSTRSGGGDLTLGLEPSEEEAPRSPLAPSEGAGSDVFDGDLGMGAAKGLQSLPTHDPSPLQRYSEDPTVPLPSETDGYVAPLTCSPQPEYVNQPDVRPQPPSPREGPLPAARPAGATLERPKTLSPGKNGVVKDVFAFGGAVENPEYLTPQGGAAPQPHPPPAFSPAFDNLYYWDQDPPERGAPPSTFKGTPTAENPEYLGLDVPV
Outline: (§1)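 Initial rates over 0–3600 s, read as substrate-to-product conversion by capillary electrophoresis, were converted to percent inhibition and fitted with a variable-slope curve to give IC50. Conditions: EGFR WT 2 nM with 1 mM ATP; HER2 YVMA 5 nM or HER2 WT 12.5 nM, each with 25 μM ATP. All used 1 μM Peptide 22 in pH 7.5 HEPES/Mn/Mg buffer.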

EGFR WT = biological target: T2, EGFR WT (Homo sapiens, UniProt P00533); assay: Enzymatic assay EGFR WT (method c); type: biochemical; details: [EGFR WT]=2 nM, [ATP]=1 mM, [Peptide 22]=1 μM
T2 construct: purchased Thermo Fisher, Carlsbad, CA ERBB1 PR7295B
T2 sequence (P00533 25-1210): as the sequence (P00533 25-1210) above
Outline: as §1

HER2YVMA = HER2YVMA (Homo sapiens, UniProt P04626, INS775YVMA); assay: Enzymatic assay HER2YVMA (method b); type: biochemical; design: purchased Viva biotech, Shanghai, China custom purification; details: [HER2YVMA]=5 nM, [ATP]=25 μM, [Peptide 22]=1 μM
HER2YVMA, sequence (P04626 with tags, fused parts or gaps INS775YVMA): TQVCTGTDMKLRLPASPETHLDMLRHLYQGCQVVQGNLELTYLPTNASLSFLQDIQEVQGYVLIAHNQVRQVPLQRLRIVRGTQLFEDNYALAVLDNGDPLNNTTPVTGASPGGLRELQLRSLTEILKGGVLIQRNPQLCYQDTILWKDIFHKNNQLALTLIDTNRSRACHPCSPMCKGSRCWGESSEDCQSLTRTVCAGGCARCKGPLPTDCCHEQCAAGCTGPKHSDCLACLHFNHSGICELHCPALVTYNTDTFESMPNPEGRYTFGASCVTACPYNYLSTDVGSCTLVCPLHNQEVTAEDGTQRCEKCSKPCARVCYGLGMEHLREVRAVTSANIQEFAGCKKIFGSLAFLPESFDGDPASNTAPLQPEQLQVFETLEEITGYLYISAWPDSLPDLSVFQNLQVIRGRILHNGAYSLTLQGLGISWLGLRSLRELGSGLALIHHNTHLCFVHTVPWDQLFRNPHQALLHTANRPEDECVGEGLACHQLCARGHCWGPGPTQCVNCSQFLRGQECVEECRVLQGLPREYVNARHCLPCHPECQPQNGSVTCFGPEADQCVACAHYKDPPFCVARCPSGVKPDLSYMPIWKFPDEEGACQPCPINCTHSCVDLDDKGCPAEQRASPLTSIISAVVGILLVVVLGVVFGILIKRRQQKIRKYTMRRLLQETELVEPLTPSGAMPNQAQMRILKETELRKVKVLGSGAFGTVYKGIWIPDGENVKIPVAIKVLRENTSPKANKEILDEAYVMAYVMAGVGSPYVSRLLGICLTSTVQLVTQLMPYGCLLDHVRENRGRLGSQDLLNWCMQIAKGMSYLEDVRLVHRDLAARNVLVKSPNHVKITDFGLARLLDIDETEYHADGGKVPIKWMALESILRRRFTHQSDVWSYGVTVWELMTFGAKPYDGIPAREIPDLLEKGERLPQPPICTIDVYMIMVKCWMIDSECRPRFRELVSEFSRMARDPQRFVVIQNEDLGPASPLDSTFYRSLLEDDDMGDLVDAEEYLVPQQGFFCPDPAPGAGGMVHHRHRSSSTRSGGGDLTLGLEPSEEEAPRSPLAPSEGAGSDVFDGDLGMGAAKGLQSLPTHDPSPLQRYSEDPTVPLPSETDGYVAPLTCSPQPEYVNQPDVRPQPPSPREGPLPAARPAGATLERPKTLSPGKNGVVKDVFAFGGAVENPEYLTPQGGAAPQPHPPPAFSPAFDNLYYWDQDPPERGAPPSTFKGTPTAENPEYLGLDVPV
Outline: as §1

Row | SMILES | EC50 (EGFR) [µM] | Selectivity A431 EC50/BT474 EC50 (EGFR) | Selectivity A431 EC50/HEKYVMA EC50 (EGFR) | IC50 (HER2 WT) [µM] | IC50 (EGFR WT) [µM] | IC50 (HER2YVMA) [µM]
1 | Cc1ccc(Oc2ccc(Nc3ncnc4sc5c(c34)CCN(C(=O)/C=C/CN3CC[C@@H](CO)C3)C5)cc2C)cn1 [Compound 132] | 0.1 to 1 | B (B: ≥ 20 and < 100) | C (C: ≥ 10 and < 20) | < 0.1 | 1 to 10 | < 0.1
2 | COc1ccc(Oc2ccc(Nc3ncnc4sc5c(c34)C(C)CN(C(=O)C=CCN(C)C)C5)cc2C)cn1 (single isomer, unassigned) [Compound 160] | 0.1 to 1 | D (D: ≥ 5 and < 10) | D (D: ≥ 5 and < 10) | < 0.1 | > 10 | < 0.1
3 | Cc1cc(Nc2ncnc3sc4c(c23)CCN(C(=O)/C=C/CN(C)C)C4)ccc1Oc1ccn2ncnc2c1 [Compound 138, (E)-1-(4-((4-([1,2,4]triazolo[1,5-a]pyridin-7-yloxy)-3-methylphenyl)amino)-5,8-dihydropyrido[4′,3′:4,5]thieno[2,3-d]pyrimidin-7(6H)-yl)-4-(dimethylamino)but-2-en-1-one] | 0.1 to 1 | B (B: ≥ 20 and < 100) | A (A: ≥100) | < 0.1 | > 10 | < 0.1
4 | Cc1cc(Nc2ncnc3sc4c(c23)CCN(C(=O)/C=C/CN(C)C)CC4)ccc1Oc1ccn2ncnc2c1 [Compound 168] | 1 to 10 | A (A: ≥100) | B (B: ≥ 20 and < 100) | < 0.1 | > 10 | 0.1 to 1
5 | Cc1cn2ccc(Oc3ccc(Nc4ncnc5sc6c(c45)CCN(C(=O)/C=C/CN(C)C)C6)cc3C)cc2n1 [Compound 110, (E)-4-(dimethylamino)-1-(4-((3-methyl-4-((2-methylimidazo[1,2-a]pyridin-7-yl)oxy)phenyl)amino)-5,8-dihydropyrido[4′,3′:4,5]thieno[2,3-d]pyrimidin-7(6H)-yl)but-2-en-1-one] | 1 to 10 | B (B: ≥ 20 and < 100) | C (C: ≥ 10 and < 20) | 0.1 to 1 | > 10 | < 0.1
6 | COc1ccc(Oc2ccc(Nc3ncnc4sc5c(c34)C(C)CN(C(=O)C=CCN(C)C)C5)cc2C)cn1 (single isomer, unassigned) [Compound 159] | 0.1 to 1 | C (C: ≥ 10 and < 20) | E (E: >1 and < 5) | 0.1 to 1 | > 10 | 0.1 to 1
7 | Cc1ccc(Oc2ccc(Nc3ncnc4sc5c(c34)CN(C(=O)/C=C/CN(C)C)C5C)cc2C)cn1 (stereo not drawn) [Compound 153, (E)-4-(dimethylamino)-1-(7-methyl-4-((3-methyl-4-((6-methylpyridin-3-yl)oxy)phenyl)amino)-5,7-dihydro-6H-pyrrolo[3′,4′:4,5]thieno[2,3-d]pyrimidin-6-yl)but-2-en-1-one] | 0.1 to 1 | B (B: ≥ 20 and < 100) | C (C: ≥ 10 and < 20) | 0.1 to 1 | > 10 | < 0.1
8 | Cc1ccc(Oc2ccc(Nc3ncnc4sc5c(c34)C(C)CN(C(=O)C=CCN(C)C(C)(C)C)C5)cc2C)cn1 (single isomer, unassigned) [Compound 178] | 0.1 to 1 | D (D: ≥ 5 and < 10) | E (E: >1 and < 5) | 0.1 to 1 | > 10 | 0.1 to 1
9 | Cc1ccc(Oc2ccc(Nc3ncnc4sc5c(c34)CCN(C(=O)/C=C/CN3CCC[C@H](n4cccn4)C3)C5)cc2C)cn1 [Compound 112] | 0.1 to 1 | B (B: ≥ 20 and < 100) | C (C: ≥ 10 and < 20) | < 0.1 | > 10 | < 0.1
10 | Cc1ccc(Oc2ccc(Nc3ncnc4sc5c(c34)CCN(C(=O)/C=C/CN3CCC[C@@H](CO)C3)C5)cc2C)cn1 [Compound 154] | < 0.1 | C (C: ≥ 10 and < 20) | E (E: >1 and < 5) | < 0.1 | > 10 | < 0.1
11 | C=CC(=O)N1Cc2sc3ncnc(Nc4ccc(Oc5ccc(C)nc5)c(C)c4)c3c2C(C)C1 (stereo not drawn) [Compound 142, 1-(5-methyl-4-((3-methyl-4-((6-methylpyridin-3-yl)oxy)phenyl)amino)-5,6-dihydropyrido[4′,3′:4,5]thieno[2,3-d]pyrimidin-7(8H)-yl)prop-2-en-1-one] | 0.1 to 1 | B (B: ≥ 20 and < 100) | B (B: ≥ 20 and < 100) | < 0.1 | 1 to 10 | < 0.1
12 | Cc1ccc(Oc2ccc(Nc3ncnc4sc5c(c34)CC(C)N(C(=O)C=CCN(C)C)C5C)cc2C)cn1 (single isomer, unassigned) [Compound 162] | > 10 | B (B: ≥ 20 and < 100) | B (B: ≥ 20 and < 100) | 1 to 10 | > 10 | 1 to 10
13 | COc1ccc(Oc2ccc(Nc3ncnc4sc5c(c34)CCN(C(=O)/C=C/CN3CC[C@H](CO)C3)C5)cc2C)cn1 [Compound 140] | 0.1 to 1 | B (B: ≥ 20 and < 100) | C (C: ≥ 10 and < 20) | < 0.1 | > 10 | < 0.1
14 | Cc1ccc(Oc2ccc(Nc3ncnc4sc5c(c34)C(C)CN(C(=O)/C=C/CN(C)C)C5)cc2Cl)cn1 (stereo not drawn) [Compound 171, (E)-1-(4-((3-Chloro-4-((6-methylpyridin-3-yl)oxy)phenyl)amino)-5-methyl-5,6-dihydropyrido[4′,3′:4,5]thieno[2,3-d]pyrimidin-7(8H)-yl)-4-(dimethylamino)but-2-en-1-one] | < 0.1 | A (A: ≥100) | E (E: >1 and < 5) | < 0.1 | > 10 | < 0.1
15 | C=CC(=O)N1CCc2c(sc3ncnc(Nc4ccc(Oc5cccnc5)c(C)c4)c23)C1 [Compound 11, 1-(4-((3-methyl-4-(pyridin-3-yloxy)phenyl)amino)-5,8-dihydropyrido[4′,3′:4,5]thieno[2,3-d]pyrimidin-7(6H)-yl)prop-2-en-1-one] | < 0.1 | E (E: >1 and < 5) | E (E: >1 and < 5) | < 0.1 | 1 to 10 | < 0.1
16 | Cc1cc(Nc2ncnc3sc4c(c23)CCN(C(=O)/C=C/CN(C)C)C4)ccc1Oc1ccc2scnc2c1 [Compound 107, (E)-1-(4-((4-(benzo[d]thiazol-5-yloxy)-3-methylphenyl)amino)-5,8-dihydropyrido[4′,3′:4,5]thieno[2,3-d]pyrimidin-7(6H)-yl)-4-(dimethylamino)but-2-en-1-one] | < 0.1 | C (C: ≥ 10 and < 20) | A (A: ≥100) | < 0.1 | 1 to 10 | < 0.1
